The assay addresses Envelope glycoprotein gp160 (Human immunodeficiency virus 1, UniProt Q6QLK5). Description: cell-free HIV fusion peptide-binding blockers – biochemical, uHTS, fluorescence dequenching, […] (AID 1986).

We go through 1 compound from ChEMBL document CHEMBL1201862, “PubChem BioAssay data set” (2004).

Calls of active or inactive are those of the source. No stated cut-off is given here; in the data, actives have a measured IC50 and inactives only a lower limit.

Chain of Envelope glycoprotein gp160 (Q6QLK5 whole entry, the tested form may be a part): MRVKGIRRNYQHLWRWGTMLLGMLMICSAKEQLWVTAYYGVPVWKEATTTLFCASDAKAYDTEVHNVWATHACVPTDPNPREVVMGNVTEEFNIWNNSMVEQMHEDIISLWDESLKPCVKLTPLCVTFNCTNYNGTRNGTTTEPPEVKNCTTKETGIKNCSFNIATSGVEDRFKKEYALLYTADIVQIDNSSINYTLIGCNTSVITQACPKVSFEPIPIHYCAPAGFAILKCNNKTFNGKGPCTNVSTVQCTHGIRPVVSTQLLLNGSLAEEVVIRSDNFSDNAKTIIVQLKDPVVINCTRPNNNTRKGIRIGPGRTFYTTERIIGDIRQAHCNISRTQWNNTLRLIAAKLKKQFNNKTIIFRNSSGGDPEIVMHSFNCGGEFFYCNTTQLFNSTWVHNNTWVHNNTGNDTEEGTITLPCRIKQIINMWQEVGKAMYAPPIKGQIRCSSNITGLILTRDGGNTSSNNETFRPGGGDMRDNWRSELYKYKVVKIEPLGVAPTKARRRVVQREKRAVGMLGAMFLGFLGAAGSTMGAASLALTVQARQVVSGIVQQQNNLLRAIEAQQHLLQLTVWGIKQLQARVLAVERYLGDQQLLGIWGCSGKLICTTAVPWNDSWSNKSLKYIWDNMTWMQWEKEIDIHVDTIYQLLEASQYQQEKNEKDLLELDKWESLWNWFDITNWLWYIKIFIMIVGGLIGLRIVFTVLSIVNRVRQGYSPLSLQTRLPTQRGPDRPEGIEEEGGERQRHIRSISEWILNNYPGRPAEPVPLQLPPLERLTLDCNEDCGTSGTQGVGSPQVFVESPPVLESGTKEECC

In general, IC50 refers to the concentration needed to halve the response being measured. As for `Cc1cc(Cl)ccc1OC(C)C(=O)Nc1ccc(S(=O)(=O)Nc2cnc3ccccc3n2)cc1` (stereo unspecified), the IC50 is 21.3 µM (active).
